According to publication PMC2243256 (Applied Microbiology and Biotechnology, 2008):

Molecular target: T1, PuORh (putrescine oxidase) (Rhodococcus erythropolis, UniProt B0F9F6)
T1 sequence (B0F9F6 1-453): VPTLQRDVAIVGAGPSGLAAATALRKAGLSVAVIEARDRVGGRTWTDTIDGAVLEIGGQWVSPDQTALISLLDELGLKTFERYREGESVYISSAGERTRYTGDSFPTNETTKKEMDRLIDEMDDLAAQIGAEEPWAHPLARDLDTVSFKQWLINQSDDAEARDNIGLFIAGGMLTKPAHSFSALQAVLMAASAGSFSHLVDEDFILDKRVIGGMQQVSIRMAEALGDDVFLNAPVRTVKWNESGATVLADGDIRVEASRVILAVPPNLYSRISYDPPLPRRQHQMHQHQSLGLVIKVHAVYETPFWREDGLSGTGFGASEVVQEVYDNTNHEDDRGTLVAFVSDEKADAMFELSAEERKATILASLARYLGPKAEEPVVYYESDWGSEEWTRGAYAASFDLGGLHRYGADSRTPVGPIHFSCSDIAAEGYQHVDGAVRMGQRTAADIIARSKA
Assay: absorbance spectrum, release by trichloroacetic acid and heat
Type: binding
Details: non-covalent; pH 8.0, 25°C for spectra

`Cc1cc2nc3c(=O)[nH]c(=O)nc-3n(C[C@H](O)[C@H](O)[C@H](O)COP(=O)(O)OP(=O)(O)OC[C@H]3O[C@@H](n4cnc5c(N)ncnc54)[C@H](O)[C@@H]3O)c2cc1C` [FAD] was tested. Which “absorbance spectrum, release by trichloroacetic acid and heat” value did it give?
Its value is “the FAD cofactor in PuORh, like in PuOMr, is not covalently bound”.
